Experimental data taken from PubChem BioAssay (NCI).
“And” between values parts separate entries of the source, which are not always exact repeats. Equal values may be shown once.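 Growth conditions: 96-well plates. Treatment: test compound, 48 hours, 5 concentrations. Analysis: linear interpolation between bracketing concentrations; unreached endpoints set to highest concentration. The concentration for 50% growth inhibition is given as GI50. TGI: concentration producing complete growth inhibition.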

Columns and labels:
Assay in all cases: NCI-60 cell line screen, 48 h
PC-3 prostate = test system: PC-3 prostate
TK-10 renal = test system: TK-10 renal
A498 renal = test system: A498 renal
NCI/ADR-RES ovarian = test system: NCI/ADR-RES ovarian
HCC-2998 colon = test system: HCC-2998 colon
COLO 205 colon = test system: COLO 205 colon
SF-268 CNS = test system: SF-268 CNS
786-0 renal = test system: 786-0 renal
SK-MEL-2 melanoma = test system: SK-MEL-2 melanoma
HOP-92 NSCLC = test system: HOP-92 NSCLC

| SMILES | GI50 (PC-3 prostate) | TGI (PC-3 prostate) | GI50 (TK-10 renal) | TGI (TK-10 renal) | GI50 (A498 renal) | TGI (A498 renal) | GI50 (NCI/ADR-RES ovarian) | TGI (NCI/ADR-RES ovarian) | GI50 (HCC-2998 colon) | TGI (HCC-2998 colon) | GI50 (COLO 205 colon) | TGI (COLO 205 colon) | GI50 (SF-268 CNS) | TGI (SF-268 CNS) | GI50 (786-0 renal) | TGI (786-0 renal) | GI50 (SK-MEL-2 melanoma) | TGI (SK-MEL-2 melanoma) | GI50 (HOP-92 NSCLC) | TGI (HOP-92 NSCLC) |
| --- | --- | --- | --- | --- | --- | --- | --- | --- | --- | --- | --- | --- | --- | --- | --- | --- | --- | --- | --- | --- |
| COc1cc(C)c(N(C)C(=O)CN(C)C)cc1Nc1nc(Nc2cccc(F)c2C(N)=O)c2cc[nH]c2n1 | > 25 µM | > 25 µM | > 22 µM | > 25 µM | > 13.9 µM | > 25 µM | > 25 µM | > 25 µM | > 23.1 µM | > 25 µM | 5.63 µM | > 25 µM | > 25 µM | > 25 µM | > 25 µM | > 25 µM | > 25 µM | > 25 µM | 0.645 µM | 16.2 µM |
| CO/N=C(\COc1ccc2c(=O)cc(-c3ccccc3)oc2c1)c1ccc(OC)cc1 | > 100 µM | > 100 µM | > 100 µM | > 100 µM | 90.9 µM | > 100 µM | > 100 µM | > 100 µM | > 100 µM | > 100 µM | > 100 µM | > 100 µM | – | – | > 100 µM | > 100 µM | > 100 µM | > 100 µM | 20.2 µM | 96.4 µM |
| COc1cc2c3c(n(CCCn4cccn4)c(=O)c2cc1OC)-c1cc2c(cc1C3=O)OCO2 | 16.3 µM | > 100 µM | 35.1 µM | > 100 µM | 2.48 µM | 14.2 µM | 1.3 µM | 16.5 µM | 7.13 µM | 64 µM | 5.25 µM | > 100 µM | 0.586 µM | > 100 µM | 0.429 µM | 2.76 µM | 59.9 µM | > 100 µM | 1.34 µM | 18.6 µM |
| O=C(O)C1(C(=O)O)CCN(S(=O)(=O)c2ccccc2)CC1 | – | > 100 µM | – | > 100 µM | – | > 100 µM | – | > 100 µM | – | – | – | > 100 µM | – | > 100 µM | – | > 100 µM | – | > 100 µM | – | > 100 µM |
| CC(C)(C)OC(=O)N(CCCn1c2c(c3ccccc3c1=O)C(=O)c1ccccc1-2)CCN(CCCn1c2c(c3ccccc3c1=O)C(=O)c1ccccc1-2)C(=O)OC(C)(C)C | > 50 µM | > 50 µM | > 50 µM | > 50 µM | > 50 µM | > 50 µM | > 50 µM | > 50 µM | – | – | > 50 µM | > 50 µM | 23.8 µM | > 50 µM | 13.6 µM | > 50 µM | > 50 µM | > 50 µM | 11.1 µM | > 50 µM |
| COc1ccc(/C=C2/CCOC2=O)cc1 | > 100 µM | > 100 µM | > 100 µM | > 100 µM | 14.9 µM | > 100 µM | > 100 µM | > 100 µM | – | – | > 100 µM | > 100 µM | > 100 µM | > 100 µM | > 100 µM | > 100 µM | > 100 µM | > 100 µM | > 100 µM | > 100 µM |
| CN1CCN(c2ccc3nc(-c4ccc5nc(-c6ccc(C(F)(F)F)cc6)[nH]c5c4)[nH]c3c2)CC1 | 1.66 µM | 3.79 µM | – | – | 10.7 µM | 29.6 µM | 25.7 µM | > 100 µM | 1.98 µM | 3.57 µM | 1.37 µM | 2.93 µM | 1.97 µM | 3.93 µM | 3.3 µM | 12.7 µM | 1.87 µM | 3.5 µM | 2.49 µM | 14.7 µM |
| O=C1c2ccccc2C(=O)c2c1c(NCCNCCO)c1cc[nH]c1c2NCCNCCO | 3.22 µM | > 25.6 µM | 6.04 µM | 44.9 µM | 8.09 µM | 32.9 µM | > 100 µM | > 100 µM | 3.18 µM | 17.2 µM | 2.48 µM | > 33.3 µM | 0.935 µM | 5.28 µM | 3.87 µM | > 36.7 µM | – | – | 3.06 µM | 16.5 µM |
| CCN(CC)CCNc1ccc(CO)c2sc3ccccc3c(=O)c12 | 3.65 µM | 17.5 µM and 17.8 µM | 2.96 µM | 11.4 µM and 24.9 µM | 1.26 µM and 6.98 µM and 3.61 µM | – | 2.99 µM and 4.29 µM and 7.25 µM | 17 µM and 17.3 µM and 21 µM | – | 25.2 µM [middle of 4 runs] | – | 3 µM and 13.9 µM and 18 µM | 3.62 µM | 16.3 µM and 21.2 µM and 20.9 µM | 4.99 µM and 19.4 µM | 18.8 µM and 52.1 µM | – | – | 1.91 µM and 5.36 µM | 15 µM and 14.9 µM and 17.9 µM |
| COc1cccc(NC(=O)c2ccc(C(F)(F)F)nc2Nc2ccc(Cl)cc2C)c1 | 4.36 µM | 17.9 µM | – | – | 1.65 µM | 11.9 µM | 5.6 µM | 20.2 µM | 2.9 µM | 18.7 µM | 10.4 µM | 25.8 µM | 13.8 µM | 32.6 µM | 14.7 µM | 31.4 µM | 10.3 µM | 21.9 µM | 4.76 µM | 21.4 µM |
